Measured values reported in US12543736B2, “Herbicidal compositions comprising mesotrione” (BASF SE, priority 2024, dated 2026).

Experiments:
[1] = tested on: Commelina benghalensis; experiment: Example 4 post-emergence application A-1, B and C-19, COMBE; format: in vivo; conditions: growth stage 13, 21 DAT, g ai/ha: A-1 1, B 50, C-19 30
Method: (§1) In the examples below, using the method of S. R. Colby (1967) “Calculating synergistic and antagonistic responses of herbicide combinations”, Weeds 15, p. 22ff., the value E, which is expected if the activity of the individual active compounds is only additive, was calculated:
(§2) [formula] • where • X=percent activity using active herbicide A at an application rate a; • Y=percent activity using active herbicide B (e.g. mesotrione) at an application rate b; • E=expected activity (in %) by A+B at application rates a+b.
(§3) If the value found experimentally is higher than the value E calculated according to Colby, a synergistic effect is present.
(§4) Evaluation was carried out using a scale from 0 to 100. 100 means no emergence of the plants, or complete destruction of at least the above-ground parts, and 0 means no damage or normal course of growth. A good herbicidal activity is given at values of at least 70, and very good herbicidal activity is given at values of at least 85.
(§5) Post-Emergence Application of Herbicide A-1 (A-1), Mesotrione (B) and Pyroxasulfone (C-19)
(§6) Herbicide A-1 (342 g/l), mesotrione (100 g/l) and pyroxasulfone (500 g/l) were, together with addition of 0.5 v/v % MSO (methylated sed oil) as adjuvant, formulated in water as distribution medium (water volume 200 l/ha) and sprayed with commercial flat fan nozzles.

[2] = tested on: Zea mays; experiment: Example 4 post-emergence application A-1, B and C-19, ZEAMX; format: in vivo; conditions: growth stage 12, 21 DAT, g ai/ha: A-1 2, B 50, C-19 30
Method: as §1, §2, §3, §4, §5, §6

Cn1nc(C(F)(F)F)c(CS(=O)(=O)C2=NOC(C)(C)C2)c1OC(F)F [C-19, pyroxasulfone]
% herbicidal activity [1]: 15%
% herbicidal activity [2]: 0%
